Test results as given in patent US10752612B2, “PLK4 inhibitors” (LUDWIG INSTITUTE FOR CANCER RESEARCH LTD, priority 2015, dated 2020).

target: T1, human Plk4 kinase domain (aa 2-275) (Homo sapiens, UniProt O00444); experiment: Plk4 kinase assay (ADP-Glo); type: biochemical; settings: Table 1
T1 construct: purified 6×His-tagged human Plk4 kinase domain (aa 2-275); 6xHis; made in house; host or cells: E. coli
T1 sequence (O00444 2-275): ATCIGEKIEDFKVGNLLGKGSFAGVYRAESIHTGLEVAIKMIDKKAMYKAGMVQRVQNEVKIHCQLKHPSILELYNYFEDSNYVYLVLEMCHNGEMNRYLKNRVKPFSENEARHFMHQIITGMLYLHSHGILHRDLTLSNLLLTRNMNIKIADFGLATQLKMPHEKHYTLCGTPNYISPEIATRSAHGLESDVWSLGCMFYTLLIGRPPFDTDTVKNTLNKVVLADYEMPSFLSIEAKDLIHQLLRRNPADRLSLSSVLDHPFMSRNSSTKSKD
Outline: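 Enzyme at 2.5-10 nM final, pH 8.0, reacted 4-16 hours at 25° C; ADP generation read by ADP-Glo luminescence. Ki derived from IC50 by Cheng-Prusoff or, for tight binders, Copeland formalism.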

Compared with CCc1cc(Nc2nc(Sc3ccc(NC(=O)C4CC4)cc3)nc(N3CCN(C)CC3)c2C)n[nH]1, CSc1c(Nc2cc(C)[nH]n2)nc(Sc2ccc(NC(=O)C3CC3)cc2)nc1N1CCN(C)CC1 is lower in IC50: > 1000 nM for the first, 100 to 1000 nM for the second.

COc1c(Nc2cc(C)[nH]n2)nc(Sc2ccc(NC(C)=O)cc2)nc1C1=CCN(CC(=O)N(C)C)CC1 and COc1c(Nc2cc(C)[nH]n2)nc(Sc2ccc(NC(C)=O)cc2)nc1N1CC=CCC1 cannot be ordered by IC50: < 1000 nM for the first, < 1000 nM for the second.

COc1c(Nc2cc(C)[nH]n2)nc(Sc2ccc(NC(C)=O)cc2)nc1N1CCC(CC(N)=O)CC1 and COc1c(Nc2cc(C)[nH]n2)nc(Sc2ccc(NC(C)=O)cc2)nc1N1CCC(C)CC1 cannot be ordered by IC50: < 1000 nM for the first, 100 to 1000 nM for the second.

COc1c(Nc2cc(C)[nH]n2)nc(Sc2ccc(S(=O)(=O)Cc3ccccc3N(C)C)cc2)nc1N1CCN(CCN(C)C)CC1 and COc1c(Nc2cc(C)[nH]n2)nc(Sc2ccc(S(=O)(=O)Cc3ccccc3C)cc2)nc1N1CCN(CCN(C)C)CC1 cannot be ordered by IC50: < 1000 nM for the first, < 1000 nM for the second.

COc1c(Nc2cc(C)[nH]n2)nc(Sc2ccc(S(=O)(=O)C(C)(C)c3c(F)c(F)cc(F)c3F)cc2F)nc1N1CCC(NC(C)=O)C1 (centres unmarked) and COc1c(Nc2cc(C)[nH]n2)nc(Sc2ccc(S(=O)(=O)C(C)(C)c3c(F)c(F)cc(F)c3F)cc2F)nc1N1CCN(CCN(C)C)CC1 cannot be ordered by IC50: < 1000 nM for the first, < 1000 nM for the second.

CCCOc1c(Nc2cc(C)[nH]n2)nc(Sc2ccc(NC(=O)C3CC3)cc2)nc1N(CC)CC and CCOc1c(Nc2cc(C)[nH]n2)nc(Sc2ccc(NC(=O)C3CC3)cc2)nc1N(C)C [drawing 129] fall in the same range of IC50: 100 to 1000 nM for the first, 100 to 1000 nM for the second.

CCOc1c(Nc2cc(C)[nH]n2)nc(Sc2ccc(NC(C)=O)cc2)nc1N(C)C and CCN(CC)c1nc(Sc2ccc(NC(C)=O)cc2)nc(Nc2cc(C)[nH]n2)c1OC cannot be ordered by IC50: 100 to 1000 nM for the first, < 1000 nM for the second.

COc1c(Nc2cc(C)[nH]n2)nc(Sc2ccc(S(=O)(=O)Cc3ccccc3)cc2)nc1N1CCCCC1 and COc1c(Nc2cc(C)[nH]n2)nc(Sc2ccc(S(=O)(=O)Cc3ccccc3)cc2)nc1N1CCN(CCN2CCC2)CC1 cannot be ordered by IC50: < 1000 nM for the first, < 1000 nM for the second.

Cc1cc(Nc2nc(Sc3ccc(NC(=O)C4CC4)cc3)nc(N3CCN(C)CC3)c2Cl)n[nH]1 and COc1c(Nc2cc(C)[nH]n2)nc(Sc2ccc(NC(=O)C3CCCC3)cc2)nc1N1CCN(C)CC1 cannot be ordered by IC50: 100 to 1000 nM for the first, < 1000 nM for the second.

CCS(=O)(=O)c1ccc(Sc2nc(Nc3cc(C)[nH]n3)c(OC)c(N3CCC(CCN(C)C)CC3)n2)cc1 and CCS(=O)(=O)c1ccc(Sc2nc(Nc3cc(C)[nH]n3)c(OC)c(N3CCC(CCN(C)C)CC3)n2)c(F)c1 cannot be ordered by IC50: < 1000 nM for the first, < 1000 nM for the second.

Cc1cc(Nc2nc(Sc3ccc(NC(=O)C4CC4)cc3)nc(Cl)c2C)n[nH]1 and Cc1cc(Nc2nc(Sc3ccc(NC(=O)C4CC4)cc3)nc(NC(C)C)c2C)n[nH]1 cannot be ordered by IC50: < 1000 nM for the first, < 1000 nM for the second.

Compared with COc1c(Nc2cc(C)[nH]n2)nc(Sc2ccc(NC(C)=O)cc2)nc1N1CCCCC1C (centres unmarked), COc1c(Nc2cc(C)[nH]n2)nc(Sc2ccc(NC(C)=O)cc2)nc1N1CCN(CCN(C)C)CC1C (centres unmarked) is higher in IC50: 100 to 1000 nM for the first, > 1000 nM for the second.

CCN1CCN(c2nc(Sc3ccc(NC(C)=O)cc3)nc(Nc3cc(C)[nH]n3)c2OC)CC1 and COc1c(Nc2cc(C)[nH]n2)nc(Sc2ccc(NC(C)=O)cc2)nc1N1CCN(C(C)=O)CC1 cannot be ordered by IC50: < 1000 nM for the first, < 1000 nM for the second.

COc1c(Nc2cc(C)[nH]n2)nc(Sc2ccc(CCc3cccc([N+](=O)[O-])c3F)cc2F)nc1N1CCOCC1 and COc1c(Nc2cc(C)[nH]n2)nc(Sc2ccc(S(=O)(=O)Cc3cccc(N)c3F)cc2F)nc1N1CCOCC1 cannot be ordered by IC50: < 1000 nM for the first, < 1000 nM for the second.

Cc1ccc(Sc2nc(Nc3cc(C)[nH]n3)c(C)c(N(C)C(C)C)n2)cc1 and CC(=O)Nc1ccc(Sc2nc(Nc3cc(C)[nH]n3)c(C)c(C3CCN(CCN(C)C)CC3)n2)cc1 cannot be ordered by IC50: < 1000 nM for the first, < 1000 nM for the second.

COc1c(Nc2cc(C)[nH]n2)nc(Sc2ccc(S(=O)(=O)COCc3ccccc3)cc2)nc1N1CCN(CCN(C)C)CC1 and Cc1cc(Nc2nc(Sc3ccc(S(=O)(=O)Cc4ccccc4)cc3)nc(N3CCN(CCN(C)C)CC3)c2OC(C)C)n[nH]1 cannot be ordered by IC50: < 1000 nM for the first, < 1000 nM for the second.

COCCN1CCN(c2nc(Sc3ccc(NC(C)=O)cc3)nc(Nc3cc(C)[nH]n3)c2C)CC1 and CCOc1c(Nc2cc(C)[nH]n2)nc(Sc2ccc(NC(C)=O)cc2)nc1N1CCN(CCOC)CC1 cannot be ordered by IC50: < 1000 nM for the first, 100 to 1000 nM for the second.

CCS(=O)(=O)c1ccc(Sc2nc(Nc3cc(C)[nH]n3)c(OC)c(N3CCNCC3)n2)cc1 and CCS(=O)(=O)c1ccc(Sc2nc(Nc3cc(C)[nH]n3)c(OC)c(N3CCN(C)CC3)n2)cc1 cannot be ordered by IC50: < 1000 nM for the first, < 1000 nM for the second.

COc1c(Nc2cc(C)[nH]n2)nc(Sc2ccc(S(=O)(=O)C(C)(C)c3cccc([N+](=O)[O-])c3F)cc2F)nc1N1CCC(NC(C)=O)CC1 and COc1c(Nc2cc(C)[nH]n2)nc(Sc2ccc(S(=O)(=O)C3(c4cccc([N+](=O)[O-])c4F)CC3)cc2F)nc1N1CCC(C(N)=O)CC1 cannot be ordered by IC50: < 1000 nM for the first, < 1000 nM for the second.

CCOc1c(Nc2cc(C)[nH]n2)nc(Sc2ccc(NC(=O)C3CC3)cc2)nc1N1CCNCC1 [drawing 126] and CCOc1c(Nc2cc(C)[nH]n2)nc(Sc2ccc(NC(C)=O)cc2)nc1N1CCNCC1 fall in the same range of IC50: 100 to 1000 nM for the first, 100 to 1000 nM for the second.

COc1c(Nc2cc(C)[nH]n2)nc(Sc2ccc(S(=O)(=O)Cc3ccccc3)cc2)nc1N1CCN(C2CCN(C)CC2)CC1 and COc1c(Nc2cc(C)[nH]n2)nc(Sc2ccc(S(=O)(=O)Cc3ccccc3)cc2)nc1N1CCN(C2CCNCC2)CC1 cannot be ordered by IC50: < 1000 nM for the first, < 1000 nM for the second.

COc1c(Nc2cc(C)[nH]n2)nc(Sc2ccc(S(=O)(=O)Cc3cccc([N+](=O)[O-])c3F)cc2F)nc1N1CCOC[C@@H]1C and COc1c(Nc2cc(C)[nH]n2)nc(Sc2ccc(S(=O)(=O)Cc3cccc(C#N)c3F)cc2F)nc1N1CCOCC1 cannot be ordered by IC50: < 1000 nM for the first, < 1000 nM for the second.

CC(=O)Nc1ccc(Sc2nc(Nc3cc(C)[nH]n3)c(C)c(N3CCN(C(C)=O)CC3)n2)cc1 and CC(=O)Nc1ccc(Sc2nc(Nc3cc(C)[nH]n3)c(C)c(N3CCN(C(=O)C(C)C)CC3)n2)cc1 cannot be ordered by IC50: < 1000 nM for the first, < 1000 nM for the second.

Cc1cc(Nc2nc(Sc3ccccc3)nc(N3CCOCC3)c2C)n[nH]1 and CNC(=O)Nc1ccc(Sc2nc(Nc3cc(C)[nH]n3)c(C)c(N3CCC(O)CC3)n2)cc1 cannot be ordered by IC50: < 1000 nM for the first, < 1000 nM for the second.

CCOc1c(Nc2cc(C)[nH]n2)nc(Sc2ccc(S(=O)(=O)Cc3cc(F)ccc3F)cc2)nc1N1CCN(CCN(C)C)CC1 and COc1c(Nc2cc(C)[nH]n2)nc(Sc2ccc(S(=O)(=O)Cc3ccccc3C(F)(F)F)cc2)nc1N1CCN(CCN(C)C)CC1 cannot be ordered by IC50: < 1000 nM for the first, < 1000 nM for the second.

COc1c(Nc2cc(C)[nH]n2)nc(Sc2ccc(S(=O)(=O)Cc3ccc([N+](=O)[O-])cc3)cc2)nc1N1CCN(CCN(C)C)CC1 and COc1c(Nc2cc(C)[nH]n2)nc(Sc2ccc(S(=O)(=O)Cc3ccccc3[N+](=O)[O-])cc2)nc1N1CCN(CCN(C)C)CC1 cannot be ordered by IC50: < 1000 nM for the first, < 1000 nM for the second.

CC(=O)Nc1ccc(Sc2nc(Nc3cc(C)[nH]n3)c(Cl)c(N3CCC(O)CC3)n2)cc1 and CC(=O)Nc1ccc(Sc2nc(Nc3cc(C)[nH]n3)c(C)c(N3CC=C(F)CC3)n2)cc1 cannot be ordered by IC50: < 1000 nM for the first, < 1000 nM for the second.

COc1c(Nc2cc(C)[nH]n2)nc(Sc2ccc(NC(C)=O)cc2)nc1N1CC2CCC(C1)N2CCN1CCCCCCC1 and COc1c(Nc2cc(C)[nH]n2)nc(Sc2ccc(NC(C)=O)cc2)nc1N1CCN(CCN2CCN(C)CC2)CC1 cannot be ordered by IC50: < 1000 nM for the first, < 1000 nM for the second.

COc1c(Nc2cc(C)[nH]n2)nc(Sc2ccc(S(=O)(=O)Cc3cccc(C(F)(F)F)c3)cc2)nc1N1CCN(CCN(C)C)CC1 and COc1c(Nc2cc(C)[nH]n2)nc(Sc2ccc(S(=O)(=O)Cc3cccc(C#N)c3)cc2)nc1N1CCN(CCN(C)C)CC1 cannot be ordered by IC50: < 1000 nM for the first, < 1000 nM for the second.

COc1c(Nc2cc[nH]n2)nc(Sc2ccc(S(=O)(=O)Cc3ccccc3)cc2)nc1N1CCN(CCN(C)C)CC1 and COc1cccc(CS(=O)(=O)c2ccc(Sc3nc(Nc4cc(C)[nH]n4)c(OC)c(N4CCN(CCN(C)Cc5ccccc5)CC4)n3)cc2)c1 cannot be ordered by IC50: < 1000 nM for the first, < 1000 nM for the second.

COc1c(Nc2cc(C)[nH]n2)nc(Sc2ccc(NC(C)=O)cc2)nc1N1CCN(CCN(C)c2ccccc2)CC1 and COc1c(Nc2cc(C)[nH]n2)nc(Sc2ccc(NC(=O)C(F)(F)F)cc2)nc1N1CCN(CCN(C)C)CC1 cannot be ordered by IC50: < 1000 nM for the first, < 1000 nM for the second.

CCOc1c(Nc2cc(C)[nH]n2)nc(Sc2ccc(NC(=O)C3CCCC3)cc2)nc1N1CCN(C2CCN(C)CC2)CC1 and Cc1cc(Nc2nc(Sc3ccc(NC(=O)C4CCCC4)cc3)nc(N3CCNCC3)c2C)n[nH]1 cannot be ordered by IC50: 100 to 1000 nM for the first, < 1000 nM for the second.

COc1c(Nc2cc(C)[nH]n2)nc(Sc2ccc(S(=O)(=O)Cc3cccc(F)c3F)cc2F)nc1N1CCCCC1 and COc1c(Nc2cc(C)[nH]n2)nc(Sc2ccc(S(=O)(=O)C(C)(C)c3c(F)c(F)cc(Cl)c3F)cc2F)nc1N1CCOCC1 cannot be ordered by IC50: < 1000 nM for the first, < 1000 nM for the second.

COc1ccc([N+](=O)[O-])cc1CS(=O)(=O)c1ccc(Sc2nc(Nc3cc(C)[nH]n3)c(OC)c(N3CCN(CCN(C)C)CC3)n2)cc1 and COc1c(CS(=O)(=O)c2ccc(Sc3nc(Nc4cc(C)[nH]n4)c(OC)c(N4CCN(CCN(C)C)CC4)n3)cc2)cccc1[N+](=O)[O-] cannot be ordered by IC50: < 1000 nM for the first, < 1000 nM for the second.

COc1c(Nc2cc(C)[nH]n2)nc(Sc2ccc(S(=O)(=O)Cc3ccccc3)cc2)nc1C1CCN(CCN(C)C)CC1 and COc1c(Nc2cc(C)[nH]n2)nc(Sc2ccc(S(=O)(=O)Cc3ccccc3)cc2)nc1N1CCN(CCN2CCC(O)CC2)CC1 cannot be ordered by IC50: < 1000 nM for the first, < 1000 nM for the second.

CCS(=O)(=O)c1ccc(Sc2nc(Nc3cc(C)[nH]n3)c(OC)c(N3CCC(CCN4C5CCCC4CCC5)CC3)n2)cc1 and COc1c(Nc2cc(C)[nH]n2)nc(Sc2ccc(S(C)(=O)=O)cc2F)nc1N1CCC(CCN(C)C)CC1 cannot be ordered by IC50: < 1000 nM for the first, < 1000 nM for the second.

First: COc1c(Nc2cc(CC(=O)O)[nH]n2)nc(SC)nc1N1CCN(CCN(C)C)CC1
Second: CNCC(=O)N1CCN(c2nc(Sc3ccc(NC(C)=O)cc3)nc(Nc3cc(C)[nH]n3)c2OC)CC1
The IC50 of the first is higher: > 1000 nM for the first, < 1000 nM for the second.
